{"source": "paper PMC12214830", "about": "“The human RIF1-Long isoform interacts with BRCA1 to promote recombinational fork repair under DNA replication stress” (Nature Communications, 2025)", "format_in_all_cases": "cell-based, human", "key": {"[1]": {"tested_on": "RIF1-L interaction with BRCA1", "experiment": "RIF1-BRCA1 / RIF1-BRCA1-BRCT co-immunoprecipitation, Flp-In T-REx 293 cells", "details": "HU 4 mM, 4 h or 24 h; Fig. 5H, I", "protocol": "For mCherry IP and GFP IP, cells were washed once with ice-cold TBS, lysed with IP lysis buffer (1X TBS, 0.5 mM EDTA, 1% CHAPS, 1 mM PMSF, 3 mM MgCl2, 1X Halt Protease & Phosphatase inhibitor), and incubated with 1 µl/ml Benzonase (Sigma-Aldrich, E1014) for 45 min at 4 °C with rotation. RFP-Trap or GFP-Trap Magnetic Agarose beads (Chromotek) were washed three times in IP buffer 1 (1X TBS, 0.5 mM EDTA) and then incubated with cell lysates for 1 h at 4 °C with rotation. Beads were next washed three times with IP washing buffer (1X TBS, 0.5 mM EDTA, 0.1% CHAPS, 1 mM PMSF, 250 mM NaCl, 1X Halt Protease & Phosphatase inhibitor), after which bead-bound proteins (IP fractions) were eluted by heating at 95 °C for 7 min. IP fractions were analysed by western blotting.\nFor FLAG IP, cell lysates were prepared in the same way. Dynabeads magnetic beads (Invitrogen) were incubated with […] anti-FLAG antibody (Sigma-Aldrich, F1804) in PBS supplemented with 0.02% Tween-20) for 10 min at RT with rotation. The antibody-bound beads were incubated with cell lysates for 1 h at 4 °C with rotation. Beads were then washed three times with PBS, after which bead-bound proteins (IP fractions) were eluted by heating at 95 °C for 7 min. IP fractions were analysed by western blotting."}, "[2]": {"tested_on": "GFP-RIF1-L-pp1bs foci", "experiment": "co-localisation of RIF1-L-pp1bs foci with BRCA1, γH2AX, RAD51, HeLa cells", "details": "HU 4 mM 24 h", "protocol": "Cells were grown on glass coverslips and treated as desired. Cells were then permeabilized with 0.5% TritonX-100 in PBS for 7 min on ice, and fixed with 4% w/v formaldehyde solution (Sigma HT5012) for 10 min at room temperature (RT). After fixation, coverslips were blocked with 3% BSA in PBS (RT, 1 h), incubated with primary antibodies (RT, 2 h), washed with PBS three times and incubated with secondary antibodies (RT, 1 h). Primary antibodies used for immunofluorescence include anti-γH2A.X (20E3) (Cell Signalling Technology, 9718. 1:500); anti-RPA32/RPA2 (9H8) (Abcam, ab2175. 1:200); anti-RAD51 (H92) (Santa Cruz Biotechnology, sc-8349. 1:100); anti-BrdU (B44) (BD Biosciences, 347580. 1:100); Coverslips were then mounted on glass slides with mounting medium with DAPI. Images were captured by either standard (Zeiss Axio Imager) or confocal (Zeiss LSM-880) microscopy. Fluorescence signal intensities within each nucleus were analysed by CellProfiler software with custom-made pipelines. Co-localisation analyses were performed with custom-made CellProfiler pipelines. Briefly, nuclei were identified and used to create masks. Nuclear RIF1-L-pp1bs, BRCA1, γH2AX, RAD51 foci were identified as objects using Otsu thresholding. ‘Relate objects’ function (defining RIF1-L-pp1bs foci as parent object and foci of other proteins as children object) was used to measure the percentage of RIF1-L-pp1bs foci co-localised with other proteins."}, "[3]": {"tested_on": "RIF1-BRCA1 proximity in HeLa cells", "experiment": "RIF1-BRCA1 proximity ligation assay, HeLa cells", "protocol": "Proximity ligation assays were performed using the Duolink In Situ PLA Fluorescence Protocol (Sigma-Aldrich, DUO92101) following the manufacturer’s instruction. Cells were grown on glass coverslips and treated as indicated for specific experiments. Cells were then permeabilized with 0.5% TritonX-100 in PBS for 10 min on ice, and fixed with 3% formaldehyde, 2% sucrose in PBS for 10 min at room temperature (RT). After fixation, coverslips were blocked in 3% BSA in PBS for 1 h at RT and incubated with primary antibodies (anti-RIF1, Bethel laboratories A300-568A, 1:1000 dilution; anti-BRCA1, Santa Cruz Biotechnologies, sc-6954, 1:200 dilution), for 1 h at RT in a humidity chamber. Primary antibodies were then washed off with PLA washing buffer A supplied in the Duolink In Situ PLA kit. Coverslips were next incubated sequentially with PLA Probes (1 h at 37 °C), ligation solution (30 min at 37 °C) and amplification solution (100 min at 37 °C), with washes by washing buffer A in between each step. At the end of incubation, coverslips were washed with washing buffer B supplied in the Duolink In Situ PLA kit. Coverslips were then mounted on glass slides with PLA Mounting medium with DAPI. Images were captured by fluorescence microscopy (Zeiss Axio Imager). PLA foci number in each nucleus were analysed by CellProfiler Software[74] with a custom-made pipeline.\nFor proximity ligation assays and immunofluorescence signal intensity measurements, when comparing between two samples, statistical significance of differences was calculated by Mann-Whitney test for non-parametric distributions using GraphPad Prism software (v.9). When comparing among three or more samples, p values were calculated by Kruskal-Wallis test for non-parametric distributions with Dunn’s multiple comparisons using GraphPad Prism software (v.9). For RIF1 foci formation analysis (Fig. 6B), p values were calculated by two-tailed Student’s t test. For nuclear BRCA1 intensity fold change analyses (Fig. 6C, D), p values were calculated by two-tailed one-sample t test using GraphPad Prism software (v.9). For RAD51 foci formation analyses (Fig. 7B, E and Supplementary Fig. 7B), p values were calculated by chi-square test. For HR Reporter assay analysis (Fig. 7G and Supplementary Fig. 7L), p values were calculated by two-tailed paired Student’s t test. For micronuclei frequency analysis (Fig. 7H), p values were calculated by one-tailed paired Student’s t test. All Student’s t tests were performed with Excel T.TEST function. Chi-square tests were performed with the online Chi-square test calculator at https://www.socscistatistics.com/tests/chisquare2/default2.aspx. Sample number n for all box-and-whisker plots and dot plots are listed in Supplementary Data 1."}, "[4]": {"details": "Fig 5G/H, HeLa RIF1 KO + RIF1-L-pp1bs, HU 4 mM 24 h"}, "[5]": {"details": "Fig 5G/H, HeLa RIF1 KO + RIF1-L, HU 4 mM 24 h"}, "[6]": {"details": "Fig 5G/H, HeLa RIF1 KO, HU 4 mM 24 h"}, "[7]": {"details": "Fig S3F, HeLa RIF1-L-APKF, HU 4mM 24hr"}, "[8]": {"details": "Fig S3F, HeLa RIF1-L, HU 4mM 24hr"}, "[9]": {"details": "Fig S3F, HeLa RIF1-S, HU 4mM 24hr"}, "[10]": {"details": "Fig S4H, HeLa +RIF1-L, HU 4mM 24hr"}, "[11]": {"details": "Fig S4I, HeLa +RIF1-L, HU 4mM 24hr"}, "[12]": {"details": "Fig S5G (repeat), HeLa RIF1 WT (RIF1-L), HU 4mM 24hr"}, "[13]": {"details": "Fig S5G (repeat), HeLa RIF1 pp1bs, HU 4mM 24hr"}, "[14]": {"details": "Fig S5I, HeLa RIF1-L-pp1bs-APKF, HU 4mM 24hr"}, "[15]": {"details": "Fig S5I, HeLa RIF1-L-pp1bs, HU 4mM 24hr"}}, "data": [{"smiles": "NC(=O)NO", "note": "[HU, hydroxyurea]", "values": [{"measurement": "RIF1-L interaction with BRCA1", "setting": "[1]", "result": "increased RIF1-L interaction with BRCA1"}, {"measurement": "RIF1-L-pp1bs foci co-localised with RAD51 and BRCA1", "setting": "[2]", "result": "~ 20%"}, {"measurement": "RIF1-L-pp1bs foci colocalised with both BRCA1 and γH2AX", "setting": "[2]", "result": "Approximately 40%"}, {"measurement": "RIF1-L-pp1bs foci overlapping BRCA1 signal", "setting": "[2]", "result": "50–60%"}, {"measurement": "RIF1-L-pp1bs foci overlapping γH2AX foci", "setting": "[2]", "result": "~ 50%"}, {"measurement": "RIF1-BRCA1 PLA foci per nucleus, mean", "setting": "[3]; [4]", "result": 45.51}, {"measurement": "RIF1-BRCA1 PLA foci per nucleus, median", "setting": "[3]; [4]", "result": 42}, {"measurement": "RIF1-BRCA1 PLA foci per nucleus, mean", "setting": "[3]; [5]", "result": 27.55}, {"measurement": "RIF1-BRCA1 PLA foci per nucleus, median", "setting": "[3]; [5]", "result": 21}, {"measurement": "RIF1-BRCA1 PLA foci per nucleus, mean", "setting": "[3]; [6]", "result": 1.394}, {"measurement": "RIF1-BRCA1 PLA foci per nucleus, median", "setting": "[3]; [6]", "result": 1}, {"measurement": "RIF1-BRCA1 PLA foci per nucleus, mean", "setting": "[3]; [7]", "result": 14.65}, {"measurement": "RIF1-BRCA1 PLA foci per nucleus, median", "setting": "[3]; [7]", "result": 12}, {"measurement": "RIF1-BRCA1 PLA foci per nucleus, mean", "setting": "[3]; [8]", "result": 18.04}, {"measurement": "RIF1-BRCA1 PLA foci per nucleus, median", "setting": "[3]; [8]", "result": 15}, {"measurement": "RIF1-BRCA1 PLA foci per nucleus, mean", "setting": "[3]; [9]", "result": 13.85}, {"measurement": "RIF1-BRCA1 PLA foci per nucleus, median", "setting": "[3]; [9]", "result": 12}, {"measurement": "RIF1-BRCA1 PLA foci per nucleus, mean", "setting": "[3]; [10]", "result": 21.43}, {"measurement": "RIF1-BRCA1 PLA foci per nucleus, median", "setting": "[3]; [10]", "result": 20}, {"measurement": "RIF1-BRCA1 PLA foci per nucleus, mean", "setting": "[3]; [11]", "result": 18.83}, {"measurement": "RIF1-BRCA1 PLA foci per nucleus, median", "setting": "[3]; [11]", "result": "2, 17, 17"}, {"measurement": "RIF1-BRCA1 PLA foci per nucleus, mean", "setting": "[3]; [12]", "result": 40.69}, {"measurement": "RIF1-BRCA1 PLA foci per nucleus, median", "setting": "[3]; [12]", "result": 37}, {"measurement": "RIF1-BRCA1 PLA foci per nucleus, mean", "setting": "[3]; [13]", "result": 62.09}, {"measurement": "RIF1-BRCA1 PLA foci per nucleus, median", "setting": "[3]; [13]", "result": 62}, {"measurement": "RIF1-BRCA1 PLA foci per nucleus, mean", "setting": "[3]; [14]", "result": 46.58}, {"measurement": "RIF1-BRCA1 PLA foci per nucleus, median", "setting": "[3]; [14]", "result": 42}, {"measurement": "RIF1-BRCA1 PLA foci per nucleus, mean", "setting": "[3]; [15]", "result": 53.47}, {"measurement": "RIF1-BRCA1 PLA foci per nucleus, median", "setting": "[3]; [15]", "result": 53}]}]}
